Structures are written as SMILES.

The conditions of data set [1]: comparison compound; cited from earlier work.
Another data set deals with HeLa cells. In words: Resazurin metabolic cell viability assay, HeLa cells. It counts as cell-based. The note with it: Human HeLa live cells, 24h, 1×10^-5 mol.L^-1. From the text:
(§1) The following figures provide preferred embodiments for the present disclosure and should not be seen as limiting the scope of the disclosure. • Figure 1: Scheme of the fluorophore precursors synthesis. • Figure 2: Synthesis of the fluorophores. • Figure 3: Absorption and emission spectra of some of the fluorophores in a dichloromethane (DCM) solution wherein black squares represent the absorption of (1E,4E)-1,5-bis[4-(dimethylamino)phenyl]penta-1,4-dien-3-one; black circles represent the absorption of (2E,6E)-2,6-bis[4-(dimethylamino)benzylidene]cyclohexanone; black diamonds represent the absorption of 2,6-bis[3-bromo-4-(dimethylamino)benzylidene]cyclohexanone; black triangles pointing up represent the absorption of (1E,4E)-1,5-bis[3-bromo-4-(dimethylamino)phenyl]penta-1,4-dien-3-one; black triangles pointing down represent the absorption of (1E,4E)-1,5-bis[3-chloro-4-(dimethylamino)phenyl]penta-1,4-dien-3-one; black stars represent the absorption of 2,6-bis[3-chloro-4-(dimethylamino)benzylidene]cyclohexanone; open squares represent the emission of (1E,4E)-1,5-bis[4-(dimethylamino)phenyl]penta-1,4-dien-3-one; open circles represent the emission of (2E,6E)-2,6-bis[4-(dimethylamino)benzylidene]cyclohexanone; open diamonds represent the emission of 2,6-bis[3-bromo-4-(dimethylamino)benzylidene]cyclohexanone; open triangles pointing up represent the absorption of (1E,4E)-1,5-bis[3-bromo-4-(dimethylamino)phenyl]penta-1,4-dien-3-one; open triangles pointing down represent the absorption of (1E,4E)-1,5-bis[3-chloro-4-(dimethylamino)phenyl]penta-1,4-dien-3-one; open stars represent the absorption of 2,6-bis[3-chloro-4-(dimethylamino)benzylidene]cyclohexanone. • Figure 4: Sample distributions of two cyclic fluorophores: (2E,6E)-2,6-bis[3-bromo-4-(dimethylamino)benzylidene]cyclohexanone labelled as cyclic-Br and (2E,6E)-2,6-bis[3-chloro-4-(dimethylamino)benzylidene]cyclohexanone labelled as cyclic-Cl (orange pseudocolour) in HeLa cells cultured on coverslips and incubated alive and for 1h with 10^-5 mol.L^-1 of the compounds. The laser line 458 nm was used to excite and the confocal Zeiss LSM-510 META 415 to 750 nm detector used to detect the fluorophores. The nuclear DAPI is used as a counterstaining dye. • Figure 5: Co-localization of the compounds (1E,4E)-1,5-bis[4-(dimethylamino)phenyl]penta-1,4-dien-3-one, labelled as linear-H and (2E,6E)-2,6-bis[3-chloro-4-(dimethylamino)benzylidene]cyclohexanone, labelled as cyclic-Cl with the Trans-Golgi Network (TGN) marker Syntaxin-6, which was Texas Red (red colour) and Alexa-405 (cyan pseudocolour) labelled by using secondary antibodies. DAPI (blue colour) was used as nuclear marker. HeLa cells were incubated in particular for 1h with 1-2×10^-5 mol.L^-1 of the fluorophores, before being fixed. The laser line 405 nm, in particular at 10-20% of its power was used to excite the fluorophores. […] A. Cell viability was determined using the metabolic Resazurin assay, and data (resazurin final O.D.±SD of four independent experiments) presented graphically as percentages of control cells (not incubated with the compounds), wherein the control is labelled as Ctrl; (1E,4E)-1,5-bis[4-(dimethylamino)phenyl]penta-1,4-dien-3-one is labelled as L-H; (1E,4E)-1,5-bis[3-chloro-4-(dimethylamino)phenyl]penta-1,4-dien-3-one is labelled as L-Cl; (1E,4E)-1,5-bis[3-bromo-4-(dimethylamino)phenyl]penta-1,4-dien-3-one is labelled as L-Br; (2E,6E)-2,6-bis[4-(dimethylamino)benzylidene]cyclohexanone labelled is labelled as C-H; 2,6-bis[3-chloro-4-(dimethylamino)benzylidene]cyclohexanone is labelled as C-Cl; 2,6-bis[3-bromo-4-(dimethylamino)benzylidene]cyclohexanone is labelled as C-Br. Statistical significance using the student-t test: *p<0.05; **p<0.01. B. Microphotograph of Cyclic-Cl distribution in HeLa and MC3T3 cells upon 24h of exposure to the compounds. Microscope settings used: a 40×/1.3 oil objective; HFT 405/488/633; in particular a 405 nm laser line at 40% of its power. […]

The test system of a further data set is MC3T3 live cells. In words: Resazurin metabolic cell viability assay, MC3T3 cells. It counts as cell-based, rat. The note with it: 24h, 1×10^-5 mol.L^-1.
Description: as §1

Consider `CCN(CC)c1ccc2nc3c4ccccc4c(=O)cc-3oc2c1` [Nile Red, 9-diethylamino-5H-benzo[a]phenoxazine-5-one], for which, in data set [1], the storage stability entry was “stable if kept at -20 °C”.

`CN(C)c1ccc(/C=C2\CCC/C(=C\c3ccc(N(C)C)c(Br)c3)C2=O)cc1Br` [cyclic-Br, (2E,6E)-2,6-bis[3-bromo-4-(dimethylamino)benzylidene]cyclohexanone]: the “cytotoxicity (cell viability, resazurin reduction)” value with HeLa cells and in the data set with MC3T3 live cells was “not cytotoxic” each time.

As for `CN(C)c1ccc(/C=C2\CCC/C(=C\c3ccc(N(C)C)c(Cl)c3)C2=O)cc1Cl` [cyclic-Cl, (2E,6E)-2,6-bis[3-chloro-4-(dimethylamino)benzylidene]cyclohexanone], the “cytotoxicity (cell viability, resazurin reduction)” value in the data set on HeLa cells and in the data set with MC3T3 live cells was “not cytotoxic” throughout.

Consider `CN(C)c1ccc(/C=C2\CCC/C(=C\c3ccc(N(C)C)cc3)C2=O)cc1` [cyclic-H, (2E,6E)-2,6-bis[4-(dimethylamino)benzylidene]cyclohexanone], for which the “cytotoxicity (cell viability, resazurin reduction)” value in the data set with HeLa cells and in the data set on MC3T3 live cells was “not cytotoxic” in each case.

`CN(C)c1ccc(/C=C/C(=O)/C=C/c2ccc(N(C)C)c(Br)c2)cc1Br` [linear-Br, (1E,4E)-1,5-bis[3-bromo-4-(dimethylamino)phenyl]penta-1,4-dien-3-one]: the “cytotoxicity (cell viability, resazurin reduction)” value in the data set on HeLa cells and in the data set on MC3T3 live cells was “not cytotoxic” throughout.

Consider `CN(C)c1ccc(/C=C/C(=O)/C=C/c2ccc(N(C)C)c(Cl)c2)cc1Cl` [linear-Cl, (1E,4E)-1,5-bis[3-chloro-4-(dimethylamino)phenyl]penta-1,4-dien-3-one], for which the “cytotoxicity (cell viability, resazurin reduction)” value with HeLa cells and in the data set with MC3T3 live cells was “not cytotoxic” throughout.

Regarding `CN(C)c1ccc(/C=C/C(=O)/C=C/c2ccc(N(C)C)cc2)cc1` [linear-H, (1E,4E)-1,5-bis[4-(dimethylamino)phenyl]penta-1,4-dien-3-one], the “cytotoxicity (cell viability, resazurin reduction)” value with HeLa cells and in the data set with MC3T3 live cells was “not cytotoxic” each time.
